Results reported in PubChem BioAssay AID256 (DTP/NCI, 2004).
Several values for one entry are separate records, joined by “and”; a condition that tells them apart may be missing. Identical values can stand only once. Toxic doses and inconclusive results are not listed. Rule for the calls: active = survival T/C of 150% or more; inactive = T/C below 125% in these data.

Test system: CD2F1 mice, L1210 leukemia ip, survival T/C
Assay: NCI In Vivo Anticancer Drug Screen. Data for tumor model L1210 Leukemia (intraperitoneal) in CD2F1 (CDF1) mice
Details: higher = longer survival
Method in brief: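 Antitumor effect is scored in animals hosting a serially transplanted tumor. Values compare compound-dosed animals against vehicle-only controls as a simple quotient.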

[1] = endpoint: mean survival time, dose: 50.0 mg/kg/injection, schedule: Q01DX009 (ip), vehicle: saline with Tween-80
[2] = endpoint: mean survival time, dose: 100.0 mg/kg/injection, schedule: Q01DX009 (ip), vehicle: saline with Tween-80
[3] = endpoint: mean survival time, dose: 100.0 mg/kg/injection, schedule: Q04DX002 (ip), vehicle: saline with Tween-80
[4] = endpoint: mean survival time, dose: 100.0 mg/kg/injection, schedule: Q04DX003 (ip), vehicle: saline with Tween-80
[5] = endpoint: mean survival time, dose: 200.0 mg/kg/injection, schedule: Q01DX009 (ip), vehicle: saline with Tween-80
[6] = endpoint: mean survival time, dose: 200.0 mg/kg/injection, schedule: Q04DX003 (ip), vehicle: saline with Tween-80
[7] = endpoint: mean survival time, dose: 400.0 mg/kg/injection, schedule: Q04DX003 (ip), vehicle: saline with Tween-80
[8] = endpoint: mean survival time, dose: 100.0 mg/kg/injection, schedule: Q04DX002 (ip), vehicle: Klucel (hydroxypropylcellulose) (HPC)
[9] = endpoint: mean survival time, dose: 200.0 mg/kg/injection, schedule: Q04DX002 (ip), vehicle: Klucel (hydroxypropylcellulose) (HPC)
[10] = endpoint: mean survival time, dose: 400.0 mg/kg/injection, schedule: Q04DX002 (ip), vehicle: Klucel (hydroxypropylcellulose) (HPC)
[11] = endpoint: mean survival time, dose: 50.0 mg/kg/injection, schedule: Q01DX009 (ip), vehicle: Klucel (hydroxypropylcellulose) (HPC)
[12] = endpoint: mean survival time, dose: 100.0 mg/kg/injection, schedule: Q01DX009 (ip), vehicle: Klucel (hydroxypropylcellulose) (HPC)

Measured: T/C

COc1cc2c(cc1OC)C(CC(C)C)=[N+](C)CC2
inactive: endpoint: mean survival time, dose: 25.0 mg/kg/injection, schedule: Q01DX009 (ip), vehicle: saline with Tween-80 103 % of control | [1] 98 % of control | [2] 109 % of control | [3] 92 % of control

CC1CCc2c(ccc3ccccc23)C1=O (stereo unspecified)
inactive: [2] 97 % of control | [4] 97 % of control | [5] 95 % of control | [6] 97 % of control | endpoint: mean survival time, dose: 400.0 mg/kg/injection, schedule: Q01DX009 (ip), vehicle: saline with Tween-80 97 % of control | [7] 94 % of control

Nc1nc(-c2ccccc2)cs1
inactive: [4] 105 % of control

O=C(O)CCCCCCCCC(=O)O (tested in a mixture with another compound)
inactive: [1] 100 % of control | [2] 100 % of control | [5] 102 % of control

Cc1cccc(NC(=O)COc2cc(Cl)c(Cl)cc2Cl)c1
inactive: [3] 98 % of control | endpoint: mean survival time, dose: 200.0 mg/kg/injection, schedule: Q04DX002 (ip), vehicle: saline with Tween-80 98 % of control | endpoint: mean survival time, dose: 400.0 mg/kg/injection, schedule: Q04DX002 (ip), vehicle: saline with Tween-80 94 % of control

COc1ccc(O)c(C=O)c1
inactive: [4] 100 % of control | [6] 110 % of control | [7] 95 % of control

O=C1OC2CC1CCC2Br (stereo unspecified)
inactive: [4] 94 % of control | [6] 94 % of control | [7] 97 % of control

[Co].[N-]=C=S.[N-]=C=S.[N-]=C=S.[NH2-].[NH2-].[NH2-]
inactive: endpoint: mean survival time, dose: 50.0 mg/kg/injection, schedule: Q01DX001 (ip), vehicle: saline with Tween-80 98 % of control and 101 % of control

COc1cccc(N2C(=O)CSC2=S)c1
inactive: [4] 107 % of control | [6] 96 % of control | [7] 106 % of control

CC(C)(C)c1ccc(C(=O)N2CCOC23CCCCC3)cc1
inactive: endpoint: median survival time, dose: 50.0 mg/kg/injection, schedule: Q01DX005 (ip), vehicle: saline with Tween-80 101 % of control and 104 % of control | endpoint: median survival time, dose: 100.0 mg/kg/injection, schedule: Q01DX005 (ip), vehicle: saline with Tween-80 96 % of control and 104 % of control | endpoint: median survival time, dose: 200.0 mg/kg/injection, schedule: Q01DX005 (ip), vehicle: saline with Tween-80 98 % of control and 101 % of control | endpoint: median survival time, dose: 400.0 mg/kg/injection, schedule: Q01DX005 (ip), vehicle: saline with Tween-80 100 % of control | endpoint: median survival time, dose: 800.0 mg/kg/injection, schedule: Q01DX005 (ip), vehicle: saline with Tween-80 96 % of control and 101 % of control

O=[N+]([O-])O.O=[N+]([O-])O.[Cu].c1ccc(CN2CCN(Cc3ccccc3)CCN(Cc3ccccc3)CCN(Cc3ccccc3)CC2)cc1
inactive: endpoint: mean survival time, dose: 6.25 mg/kg/injection, schedule: Q01DX001 (ip), vehicle: Klucel (hydroxypropylcellulose) (HPC) 91 % of control | endpoint: mean survival time, dose: 12.5 mg/kg/injection, schedule: Q01DX001 (ip), vehicle: Klucel (hydroxypropylcellulose) (HPC) 94 % of control | endpoint: mean survival time, dose: 25.0 mg/kg/injection, schedule: Q01DX001 (ip), vehicle: Klucel (hydroxypropylcellulose) (HPC) 108 % of control | endpoint: mean survival time, dose: 50.0 mg/kg/injection, schedule: Q01DX001 (ip), vehicle: Klucel (hydroxypropylcellulose) (HPC) 100 % of control

C=CCC1CN(CCC(O)c2ccc(F)cc2)CCC1(OC(=O)CC)c1ccccc1 (stereo unspecified)
inactive: [8] 93 % of control | [9] 101 % of control | [10] 104 % of control

Cn1cnc([N+](=O)[O-])c1S(=O)(=O)NCN1CCOCC1
inactive: endpoint: mean survival time, dose: 6.25 mg/kg/injection, schedule: Q01DX009 (ip), vehicle: Klucel (hydroxypropylcellulose) (HPC) 95 % of control | endpoint: mean survival time, dose: 12.5 mg/kg/injection, schedule: Q01DX009 (ip), vehicle: Klucel (hydroxypropylcellulose) (HPC) 118 % of control and 101 % of control | endpoint: mean survival time, dose: 25.0 mg/kg/injection, schedule: Q01DX009 (ip), vehicle: Klucel (hydroxypropylcellulose) (HPC) 101 % of control and 106 % of control | [11] 95 % of control and 110 % of control | [12] 96 % of control

O=c1nc(N2CCSCC2)ccn1C1OC(CO)C(O)C1O (stereo unspecified)
inactive: endpoint: median survival time, dose: 12.5 mg/kg/injection, schedule: Q01DX005 (ip), vehicle: water 100 % of control | endpoint: median survival time, dose: 25.0 mg/kg/injection, schedule: Q01DX005 (ip), vehicle: water 101 % of control | endpoint: median survival time, dose: 50.0 mg/kg/injection, schedule: Q01DX005 (ip), vehicle: water 102 % of control | endpoint: median survival time, dose: 100.0 mg/kg/injection, schedule: Q01DX005 (ip), vehicle: water 101 % of control | endpoint: median survival time, dose: 200.0 mg/kg/injection, schedule: Q01DX005 (ip), vehicle: water 103 % of control

N/C(=N\O)c1ncnc2c1ncn2C1OC(CO)C(O)C1O (stereo unspecified)
inactive: endpoint: median survival time, dose: 6.25 mg/kg/injection, schedule: Q01DX005 (ip), vehicle: distilled water + Tween-80 107 % of control | endpoint: median survival time, dose: 12.5 mg/kg/injection, schedule: Q01DX005 (ip), vehicle: distilled water + Tween-80 115 % of control | endpoint: median survival time, dose: 25.0 mg/kg/injection, schedule: Q01DX005 (ip), vehicle: distilled water + Tween-80 108 % of control | endpoint: median survival time, dose: 50.0 mg/kg/injection, schedule: Q01DX005 (ip), vehicle: distilled water + Tween-80 111 % of control | endpoint: median survival time, dose: 100.0 mg/kg/injection, schedule: Q01DX005 (ip), vehicle: distilled water + Tween-80 111 % of control

c1ccc2c(CN3CC3)c[nH]c2c1
inactive: endpoint: mean survival time, dose: 22.0 mg/kg/injection, schedule: Q01DX009 (ip), vehicle: other 101 % of control | endpoint: mean survival time, dose: 25.0 mg/kg/injection, schedule: Q01DX009 (ip), vehicle: other 109 % of control | endpoint: mean survival time, dose: 33.0 mg/kg/injection, schedule: Q01DX009 (ip), vehicle: other 103 % of control | [2] 114 % of control | [5] 112 % of control

O=C1CCCN1
inactive: endpoint: mean survival time, dose: 50.0 mg/kg/injection, schedule: Q01DX009 (ip), vehicle: saline 91 % of control | endpoint: mean survival time, dose: 100.0 mg/kg/injection, schedule: Q01DX009 (ip), vehicle: saline 98 % of control | endpoint: mean survival time, dose: 200.0 mg/kg/injection, schedule: Q01DX009 (ip), vehicle: saline 89 % of control

CCOC(=O)c1cc2c(=O)cccnc2o1
inactive: endpoint: mean survival time, dose: 75.0 mg/kg/injection, schedule: Q01DX001 (ip), vehicle: saline 93 % of control | endpoint: mean survival time, dose: 150.0 mg/kg/injection, schedule: Q01DX001 (ip), vehicle: saline 96 % of control | endpoint: mean survival time, dose: 300.0 mg/kg/injection, schedule: Q01DX001 (ip), vehicle: saline 96 % of control

C[n+]1ccccc1/C=C/c1ccccn1
inactive: endpoint: mean survival time, dose: 5.3 mg/kg/injection, schedule: Q01DX009 (ip), vehicle: saline with Tween-80 97 % of control | endpoint: mean survival time, dose: 6.25 mg/kg/injection, schedule: Q04DX003 (ip), vehicle: saline 95 % of control | endpoint: mean survival time, dose: 8.0 mg/kg/injection, schedule: Q01DX009 (ip), vehicle: saline with Tween-80 100 % of control | endpoint: mean survival time, dose: 12.0 mg/kg/injection, schedule: Q01DX009 (ip), vehicle: saline with Tween-80 100 % of control | endpoint: mean survival time, dose: 12.5 mg/kg/injection, schedule: Q04DX003 (ip), vehicle: saline 98 % of control | endpoint: mean survival time, dose: 18.0 mg/kg/injection, schedule: Q01DX009 (ip), vehicle: saline with Tween-80 92 % of control | endpoint: mean survival time, dose: 25.0 mg/kg/injection, schedule: Q04DX003 (ip), vehicle: saline 92 % of control

NNC(=S)NC1CC2C=CC1C2 (stereo unspecified)
inactive: endpoint: mean survival time, dose: 6.25 mg/kg/injection, schedule: Q04DX003 (ip), vehicle: saline with Tween-80 95 % of control | endpoint: mean survival time, dose: 12.5 mg/kg/injection, schedule: Q04DX003 (ip), vehicle: saline with Tween-80 95 % of control | endpoint: mean survival time, dose: 25.0 mg/kg/injection, schedule: Q04DX003 (ip), vehicle: saline with Tween-80 97 % of control

O=C1OC(O)C(Cl)=C1Cl (stereo unspecified)
inactive: [8] 103 % of control | [9] 91 % of control | [10] 97 % of control

O=c1ccc2ccccc2o1
inactive: [11] 100 % of control | [12] 96 % of control | endpoint: mean survival time, dose: 200.0 mg/kg/injection, schedule: Q01DX009 (ip), vehicle: Klucel (hydroxypropylcellulose) (HPC) 96 % of control
